Data as given in US20190134005A1 (BioMarin Pharmaceutical Inc., priority 2016, published 2019).

molecular target: T1, human CGT (Homo sapiens, UniProt Q16880); assay: Assay 1: CGT Enzymatic Assay (RapidFire/MS/MS, 0.01% Tween 80); type: biochemical; conditions: Table 1, Compounds of Formula (I) and Formula (II); CGT enzymatic assay, C6-NBD-dihydro-galactosylceramide readout; read-out: IC50
T1 sequence (Q16880 21-541): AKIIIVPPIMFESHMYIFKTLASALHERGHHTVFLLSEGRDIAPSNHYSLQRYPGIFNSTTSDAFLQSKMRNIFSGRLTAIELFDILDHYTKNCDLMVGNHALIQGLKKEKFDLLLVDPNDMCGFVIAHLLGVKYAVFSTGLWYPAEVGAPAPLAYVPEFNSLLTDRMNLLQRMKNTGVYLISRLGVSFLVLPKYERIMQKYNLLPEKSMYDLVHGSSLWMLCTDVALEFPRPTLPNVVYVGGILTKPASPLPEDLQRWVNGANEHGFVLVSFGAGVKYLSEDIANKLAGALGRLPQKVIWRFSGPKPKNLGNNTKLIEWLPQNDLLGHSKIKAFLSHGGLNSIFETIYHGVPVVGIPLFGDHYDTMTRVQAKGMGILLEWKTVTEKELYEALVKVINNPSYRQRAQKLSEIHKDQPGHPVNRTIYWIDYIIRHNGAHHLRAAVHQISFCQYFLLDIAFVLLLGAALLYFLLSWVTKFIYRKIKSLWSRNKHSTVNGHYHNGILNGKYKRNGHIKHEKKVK

| IC50 [nM] | SMILES |
| --- | --- |
| < 1000 | Cc1ccc(N2C(=O)N(c3ccc(C#N)cc3)C(O)(c3cccc(OC(F)(F)F)c3)C23COC3)cc1 (centres unmarked) [Example 307, 4-(8-hydroxy-6-oxo-5-(p-tolyl)-8-(3-(trifluoromethoxy)phenyl)-2-oxa-5,7-diazaspiro[3.4]octan-7-yl)benzonitrile] |
| < 1000 | CC1(C)N(c2ccc(C#N)cc2)C(=O)N(c2ccc(Cl)cc2)C1(O)c1cccc(C#N)c1 (centres unmarked) [Example 309, 3-(3-(4-chlorophenyl)-1-(4-cyanophenyl)-4-hydroxy-5,5-dimethyl-2-oxoimidazolidin-4-yl)benzonitrile] |
| < 1000 | O=C1N(c2ccc(Cl)cc2)C2(COC2)C(O)(c2sccc2Br)N1c1ccc(Cl)cc1 (centres unmarked) [Example 310, 8-(3-bromothiophen-2-yl)-5,7-bis(4-chlorophenyl)-8-hydroxy-2-oxa-5,7-diazaspiro[3.4]octan-6-one] |
| < 1000 | Cc1ccc(N2C(=O)N(c3ccc(Cl)cc3)C(O)(c3cccc(OC(F)(F)F)c3)C23COC3)cc1 (centres unmarked) [Example 311, 7-(4-chlorophenyl)-8-hydroxy-5-(p-tolyl)-8-(3-(trifluoromethoxy)phenyl)-2-oxa-5,7-diazaspiro[3.4]octan-6-one] |
| < 1000 | Cc1ccc(N2C(=O)N(c3ccc(C#N)cc3)C(C)(C)C2(O)c2cccc(OC(F)(F)F)c2)cc1 (centres unmarked) [Example 312, 4-(4-hydroxy-5,5-dimethyl-2-oxo-3-(p-tolyl)-4-(3-(trifluoromethoxy)phenyl)imidazolidin-1-yl)benzonitrile] |
| < 1000 | Cc1ccc(N2C(=O)N(c3ccc(Cl)cc3)C(O)(c3cccc(OC(F)(F)F)c3)C23CCC3)cc1 (centres unmarked) [Example 315, 7-(4-chlorophenyl)-8-hydroxy-5-(p-tolyl)-8-(3-(trifluoromethoxy)phenyl)-5,7-diazaspiro[3.4]octan-6-one] |
| < 1000 | Cc1ccc(N2C(=O)N(c3ccc(Cl)cc3)C(O)(c3cccc(C#N)c3)C23CCC3)cc1 (centres unmarked) [Example 316, 3-(7-(4-chlorophenyl)-8-hydroxy-6-oxo-5-(p-tolyl)-5,7-diazaspiro[3.4]octan-8-yl)benzonitrile] |
| < 1000 | Cc1ccc(N2C(=O)N(c3ccc(Cl)cc3)C(O)(c3cccc(C#N)c3)C2(C)C)cc1 (centres unmarked) [Example 317, 3-(3-(4-chlorophenyl)-4-hydroxy-5,5-dimethyl-2-oxo-1-(p-tolyl)imidazolidin-4-yl)benzonitrile] |
| < 1000 | Cc1ccc(N2C(=O)N(c3ccc(Cl)cc3)C(O)(c3cccc(OC(F)(F)F)c3)C2(C)C)cc1 (centres unmarked) [Example 318, 1-(4-chlorophenyl)-5-hydroxy-4,4-dimethyl-3-(p-tolyl)-5-(3-(trifluoromethoxy)phenyl)imidazolidin-2-one] |
| < 1000 | CC[C@@]1(C)N(c2ccc(C#N)cc2)C(=O)N(c2ccc(C#N)cc2)C1(O)c1cccc(OC(F)(F)F)c1 (stereo partly drawn) [Example 319-1, 4,4′-((4R)-4-ethyl-5-hydroxy-4-methyl-2-oxo-5-(3-(trifluoromethoxy)phenyl)imidazolidine-1,3-diyl)dibenzonitrile] |
| < 1000 | CC[C@]1(C)N(c2ccc(C#N)cc2)C(=O)N(c2ccc(C#N)cc2)C1(O)c1cccc(OC(F)(F)F)c1 (stereo partly drawn) [Example 319-2, 4′-((4S)-4-ethyl-5-hydroxy-4-methyl-2-oxo-5-(3-(trifluoromethoxy)phenyl)imidazolidine-1,3-diyl)dibenzonitrile] |
| < 1000 | CCC1(CC)N(c2ccc(Cl)cc2)C(=O)N(c2ccc(Cl)cc2)C1(O)c1cccc(C#N)c1 (centres unmarked) [Example 321, 3-(1,3-bis(4-chlorophenyl)-5,5-diethyl-4-hydroxy-2-oxoimidazolidin-4-yl)benzonitrile] |

| SMILES | IC50 [nM] |
| --- | --- |
| Cc1ccc(N2C(=O)N(c3ccc(C#N)cc3)C(O)(c3cccc(C#N)c3)C23COC3)cc1 (centres unmarked) [Example 308, 3-(7-(4-cyanophenyl)-8-hydroxy-6-oxo-5-(p-tolyl)-2-oxa-5,7-diazaspiro[3.4]octan-8-yl)benzonitrile] | < 1000 |
| Cc1ccc(N2C(=O)N(c3ccc(C#N)cc3)C(O)(c3cccc(C#N)c3)C2(C)C)cc1 (centres unmarked) [Example 313, 3-(3-(4-cyanophenyl)-4-hydroxy-5,5-dimethyl-2-oxo-1-(p-tolyl)imidazolidin-4-yl)benzonitrile] | < 1000 |
| Cc1ccc(N2C(=O)N(c3ccc(C#N)cc3)C(O)(c3cccc(OC(F)(F)F)c3)C2(C)C)cc1 (centres unmarked) [Example 314, 4-(5-hydroxy-4,4-dimethyl-2-oxo-3-(p-tolyl)-5-(3-(trifluoromethoxy)phenyl)imidazolidin-1-yl)benzonitrile] | < 1000 |
| CCC[C@]1(C)N(c2ccc(C#N)cc2)C(=O)N(c2ccc(C#N)cc2)C1(O)c1cccc(OC(F)(F)F)c1 (stereo partly drawn) [Example 320-2, 4,4′-((5S)-4-hydroxy-5-methyl-2-oxo-5-propyl-4-(3-(trifluoromethoxy)phenyl)imidazolidine-1,3-diyl)dibenzonitrile] | < 1000 |
| CC1(C)N(c2ccc(C#N)cc2)C(=O)N(c2ccc(Cl)cc2)C1(O)c1cccc(OC(F)(F)F)c1 (centres unmarked) [Example 322, 4-(3-(4-chlorophenyl)-4-hydroxy-5,5-dimethyl-2-oxo-4-(3-(trifluoromethoxy)phenyl)imidazolidin-1-yl)benzonitrile] | < 1000 |

same assay, conditions: Table 1, Compounds of Formula (I) and Formula (II); CGT enzymatic assay; read-out: IC50

| IC50 [nM] | SMILES |
| --- | --- |
| < 1000 | N#Cc1cccc(C2(O)N(c3ccc(Cl)cc3)C(=O)N(c3ccc(Cl)cc3)C23CC3)c1 (centres unmarked) [Example 226, 3-(4,6-bis(4-chlorophenyl)-7-hydroxy-5-oxo-4,6-diazaspiro[2.4]heptan-7-yl)benzonitrile] |
| 1000 to 10000 | O=C1N(c2ccc(Cl)cc2)C2(CC2)C(O)(c2cccc(O)c2)N1c1ccc(Cl)cc1 (centres unmarked) [Example 227, 4,6-bis(4-chlorophenyl)-7-hydroxy-7-(3-hydroxyphenyl)-4,6-diazaspiro[2.4]heptan-5-one] |
| < 1000 | O=C1N(c2ccc(Cl)cc2)C2(CC2)C(O)(c2cccc(Cl)c2)N1c1ccc(Cl)cc1 (centres unmarked) [Example 228, 7-(3-chlorophenyl)-4,6-bis(4-chlorophenyl)-7-hydroxy-4,6-diazaspiro[24]heptan-5-one] |
| < 1000 | CC1N(c2ccccc2)C(=O)N(c2ccc(Br)cc2)C1(O)c1cccc(OC(F)(F)F)c1 (centres unmarked) [Example 229, 3-(4-bromophenyl)-4-hydroxy-5-methyl-1-phenyl-4-(3-(trifluoromethoxy)phenyl)imidazolidin-2-one] |
| 1000 to 10000 | CC1N(c2ccccc2)C(=O)N(c2ccccc2)C1(O)c1cccc(OC(F)(F)F)c1 (centres unmarked) [Example 230, 4-hydroxy-5-methyl-1,3-diphenyl-4-(3-(trifluoromethoxy)phenyl)imidazolidin-2-one] |
| 1000 to 10000 | C[C@@H]1N(c2ccccc2)C(=O)N(c2ccccc2)C1(O)c1cccc(OC(F)(F)F)c1 (stereo partly drawn) [Example 230-1, (5S)-4-hydroxy-5-methyl-1,3-diphenyl-4-(3-(trifluoromethoxy)phenyl)imidazolidin-2-one] |
| 1000 to 10000 | C[C@H]1N(c2ccccc2)C(=O)N(c2ccccc2)C1(O)c1cccc(OC(F)(F)F)c1 (stereo partly drawn) [Example 230-2, (5R)-4-hydroxy-5-methyl-1,3-diphenyl-4-(3-(trifluoromethoxy)phenyl)imidazolidin-2-one] |
| 1000 to 10000 | CC(C)C1(c2cccc(C#N)c2)C(O)N(c2ccc(Cl)cc2)C(=O)N1c1ccc(Cl)cc1 (centres unmarked) [Example 231, 3-(1,3-bis(4-chlorophenyl)-5-hydroxy-4-isopropyl-2-oxoimidazolidin-4-yl)benzonitrile] |
| 1000 to 10000 | CC(C)C1(c2cccc(C#N)c2)C(O)N(c2ccc(Br)cc2)C(=O)N1c1ccc(Br)cc1 (centres unmarked) [Example 232, 3-(1,3-bis(4-bromophenyl)-5-hydroxy-4-isopropyl-2-oxoimidazolidin-4-yl)benzonitrile] |
